Measured values as given in ChEMBL document CHEMBL3507680, “University of Dundee, Gates Library screen for HepG2 cell viability”.

Assay: Human HepG2 cell viability assay in 384 well format
Format: toxicity, cell-based
Set-up: dose 125 nL, time 70.5 hour; cytotoxicity at 70.5 h: concentration not given beside the values
Conditions: HepG2 cells, read-out: Inhibition

Structure (SMILES)	cytotoxicity at 70.5 h [%]
Cc1ccc2c(c1)N(C(=O)c1nccnc1N)CC(C)O2 (stereo not given)	-3.11
O=C(NCC1CCCN1CCc1ccccc1)NCC1(O)CCC1 (stereo not given)	-9.32
Cc1noc(C)c1CN(C)C(=O)C1CCCN1S(N)(=O)=O (stereo not given)	17.7
CC(C)OCCS(=O)(=O)NC1CCN(C2CCCC2)C1 (stereo not given)	8.61
O=C(C1CCCOC1)N(CC(F)F)c1cccc(Cl)c1 (stereo not given)	2.67
CCC(NC(=O)Cn1ccc(=O)n(C)c1=O)c1ccc(OC)cc1 (stereo not given)	-9.09
CCC(NC(=O)Cn1ccc(=O)n(C)c1=O)c1ccccc1OC (stereo not given)	-7
NC(=O)C(NC(=O)CCc1ccc(Cl)s1)c1ccccc1 (stereo not given)	-7.77
O=S1(=O)CCC(c2nnc(-c3cnc4onc(C5CC5)c4c3)o2)C1 (stereo not given)	-2.78
c1nc2onc(C3CC3)c2cc1-c1nnc(C2CC2)o1	1.7
COc1ccc(CNc2cc(-c3nc(C)no3)ccn2)c(OC)c1	-1.3
Cc1nn(C)c(C)c1OCC(=O)N1CCCc2c(F)ccc(F)c21	18.1
CS(=O)(=O)CCC(=O)N1CCC(c2ccc(F)c(F)c2)CC1	2.26
CC1CCC(N2CCC(NS(=O)(=O)CCOC(C)C)CC2)CC1 (stereo not given)	14.8
CCC1COCCN1C(=O)CNC(=O)c1ccoc1C (stereo not given)	-5.54
Cc1noc(C)c1CN(C)C(=O)C1CCCCN1CC(C)C (stereo not given)	5.24
COCCCN(C)c1nc(-c2ccncc2)nc(C)c1C	-5.34
Cc1cccc2nc(CN3CCCC(C)C3)cc(=O)n12 (stereo not given)	13.9
Cc1noc(C)c1Cc1nc(C2CC2)no1	-2.18
CC1COc2ccccc2N1C(=O)CCc1cscn1 (stereo not given)	3.54
CC(C)N(CC(=O)Nc1ccc(Br)cc1Cl)Cc1cccnc1	38.4
CCc1noc(CNc2cc3c(cc2Cl)OCCCO3)n1	-11
Cc1ccc(C2CCCN2Cc2nc(-c3ccco3)no2)cc1 (stereo not given)	-1.81
Cc1cccc(C(=O)N(C)CC(=O)N2CCCC2)c1C	-14.8

Structure (SMILES)	cytotoxicity at 70.5 h [%]
CC(C)C(=O)NCc1cc(Br)ccc1F	-9.54
Cc1cc(C2CCCN2Cc2cc(-c3ccco3)on2)on1 (stereo not given)	-14.5
Cc1cc(C2CCCN2Cc2nc(-c3ccco3)no2)on1 (stereo not given)	-0.568
Cc1cc(C2CCCN2Cc2nnc(-c3ccco3)o2)on1 (stereo not given)	-8.06
Cc1noc(C)c1CS(=O)(=O)Cc1nc(C2CC2)no1	-0.106
CC(C)CNC(=O)c1ccc(NC(=O)NC(C)c2ccccn2)cc1 (stereo not given)	-5.93
CCCNC(=O)c1ccc(NC(=O)NC(C)c2ccccn2)cc1 (stereo not given)	-8.01
COc1ccc(CNCCC(=O)N2CCc3sccc3C2)cc1O	5.44
CC(NC(N)=O)C(=O)NCc1ccc(Br)c(F)c1 (stereo not given)	0.261
CC1COc2ccccc2N1C(=O)c1cscn1 (stereo not given)	-9.82
O=S(=O)(NCCCn1ccc2ccccc21)N1CCCCC1	16.7
O=c1oc(-c2ccc(F)cc2)nn1CC1CCOC1 (stereo not given)	16.4
Cc1c(Cl)cccc1NC(=O)CN(Cc1cccnc1)C(C)C	1.97
Cc1nc(NS(=O)(=O)c2cc(Br)ccc2C)no1	-11.8
Cc1nc(NS(=O)(=O)c2cc(C)c(Br)cc2C)no1	-14.1
Cc1nc(CC(=O)N2c3ccccc3OCC2C)cs1 (stereo not given)	-9.24
COc1ccc(CN(C(=O)C2CCCOC2)c2ccncc2)cc1 (stereo not given)	-3.58
Cc1noc(C)c1CN(C)CCc1nc(-c2cccc(Cl)c2)no1	-10.4
COC(=O)NCC(=O)N(C)Cc1csc(C)n1	-4.39
CC(C)c1ccc2c(c1)CCCN2C(=O)CN(C)S(C)(=O)=O	-94.4
O=C(CNc1cc(-n2cnnn2)ccc1F)NCc1ccccc1	-118
COCCc1nc(-c2cnn3c(C)cc(C)nc23)no1	-107
O=C(O)c1cc(S(=O)(=O)Nc2cccc3c2OCCO3)ccc1F	-18.2
NC(=O)C1CN(c2ccc3cc(Br)ccc3n2)CCO1 (stereo not given)	-109

Structure (SMILES)	cytotoxicity at 70.5 h [%]
Cc1ccc(C(=O)N2CCOC3(CCCC3)C2)c(=O)[nH]1	-41.7
N#Cc1cccc(Cl)c1NC1CCN(CC(N)=O)CC1	-106
CNC(=O)c1ccc(CNc2ccncc2Cl)cc1	-98.3
CN(Cc1cnn(C)c1)C(=O)CCC(=O)c1ccc2c(c1)OCCO2	-82.6
CCn1c(C)cc(C(=O)N2CCC(Nc3ccc(C)nn3)CC2)c1C	-91.3
CCOc1cc(Cl)ccc1CNC(=O)N(C)CC(C)(C)O	-78.1
CNS(=O)(=O)c1cccc(CNc2ccc(C#N)cn2)c1	-7.11
COc1cc(CNC(=O)Nc2nnc(C3CC3)s2)ccc1O	-8.51
COc1ncccc1CNC(=O)c1csc(Br)c1	-8.18
N#CCCN(Cc1ccco1)C(=O)CN1CCCC1c1cccs1 (stereo not given)	1.44
CN(Cc1ccco1)C(=O)NC(Cn1ccnc1)C(C)(C)C (stereo not given)	-5.15
COc1cc(CNC(=O)c2csc(Br)c2)ccn1	-12.9
CCc1nnsc1C(=O)NCc1c(C)nn(CCOC)c1C	-7.41
CNS(=O)(=O)Cc1cccc(CNc2ccc(C#N)cn2)c1	-10.5
O=C1CCN(C(=O)C2(c3ccc(F)cc3)CCCCC2)CCN1	-8.46
O=C1CCN(C(=O)C2(c3ccc(F)cc3)CCCC2)CCN1	-5.37
Cc1nnc(C2Cc3ccccc3CN2Cc2nc(C3CC3)no2)o1 (stereo not given)	-5.34
O=C(NCCCN1CCOCC1)C(OC1CCCC1)c1ccccc1 (stereo not given)	-1.75
CCc1nnc2n1CCN(C(=O)c1cnc3c(cnn3C(C)C)c1)C2	-8.43
CCCn1[nH]cc/c1=N\C(=O)CN1CCCC1Cn1nc(C)nc1C (stereo not given)	-1.59
CCNC(=O)CNS(=O)(=O)Cc1cc(-c2ccccc2)no1	2.55
COc1ccc(CNC(=O)N2CCCN(CC3CCCCC3)CC2)cn1	-5.17
COCCOc1ccc(NC(=O)N(C(C)C)C2CC2)cn1	-3.25
CN(Cc1cc(Br)cn1C)C(=O)c1cc(Cl)ccn1	30.9

Structure (SMILES)	cytotoxicity at 70.5 h [%]
CC(C(=O)NS(=O)(=O)Cc1cc(-c2ccccc2)no1)C1CC1 (stereo not given)	-1.89
CCNC(=O)CCC(=O)NC(C)Cc1ccccc1Br (stereo not given)	4.19
Cc1noc(NCc2ccc(F)cc2)n1	-1.48
CN1CCN(CCNC(=O)C(OC2CCCC2)c2ccccc2)CC1 (stereo not given)	5.3
COCCOc1ccc(NC(=O)N(CCCO)CC(C)(C)C)cn1	21.2
CCCn1[nH]cc/c1=N\C(=O)CN1CCCC1Cn1cccn1 (stereo not given)	-6.25
Cc1nc2n(n1)CC(NCc1nnc(C(C)(C)C)o1)CC2 (stereo not given)	-6.83
CC(Cn1ccnc1)NC(=O)N(C)Cc1ccco1 (stereo not given)	-2.84
CCc1nnc(C2Cc3ccccc3CN2Cc2cc(C)no2)o1 (stereo not given)	-4.33
CCN(CC)c1ccc(CNC(=O)c2cnccn2)cn1	18
CCN(CC)c1ccc(CNC(=O)c2ccc(=O)[nH]n2)cn1	-13.1
O=C(c1cc(C2CC2)[nH]n1)N1CCN(c2nccs2)CC1	-11.6
O=C(c1ccoc1)N1CCC(NCc2cccnc2)CC1	4.06
CCS(=O)(=O)N1CCC(Nc2ccc(C#N)cc2F)CC1	-10.9
CC(NC(=O)CN1C=Nc2ccccc2S1(=O)=O)c1ccccc1 (stereo not given)	-9.29
Cc1ccc(CNC(=O)N2CCN(S(C)(=O)=O)CC2)n1C	-6.21
Cc1nc(S(=O)(=O)NCCC(=O)NCc2ccsc2)cn1C	-6.68
Fc1ccccc1CN1CCC(c2n[nH]c(C3CC3)n2)CC1	-5.65
c1cc(CCN2CCC(c3n[nH]c(C4CC4)n3)CC2)ccn1	11.7
Cc1ccc(CNC(=O)C2CCN(C(=O)C(C)C)CC2)n1C	-9.28
CCNc1cc2c(nn1)CCN(C(=O)Cc1ccc3c(c1)CCO3)C2	-7.37
Cc1nc(-c2cnn(C)c2)sc1C(=O)NCc1ccc(C)n1C	-2.82
O=C(Nc1ccccc1F)N(CCO)CCOCC(F)(F)F	-4.12
CCOC(=O)c1ccc(CNC(=O)c2ccon2)o1	14.2

Structure (SMILES)	cytotoxicity at 70.5 h [%]
O=C(CCn1cccn1)NS(=O)(=O)N1CCCc2ccccc21	-8.67
CCOC(=O)c1ccc(CNC(=O)c2ccc(Cl)cn2)o1	-6.63
Cn1cc(C2(C)CN(c3ncccc3C#N)CCO2)cn1 (stereo not given)	3.03
Cc1c(NC(C)C(C)C)cccc1C(=O)NCc1ccnn1C (stereo not given)	4.31
Cn1cc(C(=O)N2CCCC2CCc2ccccc2)cn1 (stereo not given)	-9.35
Cc1nc(-c2cnn(C)c2)sc1C(=O)NCc1cccc(CN(C)C)c1	-6.53
CCc1cc(NC(=O)N2CCC(Oc3cccnc3)C2)n(C)n1 (stereo not given)	-6.65
Cc1nnc(NCC(c2ccco2)N2CCCC2)c(C#N)c1C (stereo not given)	3.51
O=C(CS(=O)(=O)c1ccccn1)NC1CCCc2ccccc21 (stereo not given)	1
O=C(NCCc1cccs1)NC1CCN(c2ncccn2)CC1	-6.98
CS(=O)(=O)NCC1CCCN(C(=O)Nc2ccccc2F)C1 (stereo not given)	1.05
CS(=O)(=O)NCC1CCCN(C(=O)Nc2cccc3ccccc23)C1 (stereo not given)	-3.21
O=C(c1cccc(-n2cnnn2)c1)N1CCC2(CC1)OCCO2	-7.02
Cc1nc(CNC(=O)NC2CCN(c3ncccn3)CC2)cs1	-6.89
CCS(=O)(=O)CC(=O)NC(c1ccccc1)C1CCCC1 (stereo not given)	0.476
CCCN(CC(F)F)C(=O)CCc1c(C)nc2cc(O)nn2c1C	23.2
Cc1ccc(-n2cc(C(=O)N3CCn4c(C)nnc4C3)nn2)cc1	26.8
Cc1cc(C(=O)N2CCC(Nc3cccnc3)CC2)c(C)s1	2.17
COc1cc(C(=O)N2CCC(Nc3cccnc3)CC2)ccc1C	6.09
Cc1nn(C)c(C)c1CNCc1cccnc1N1CCOCC1	-7.44
O=C(Cc1ccc2c(c1)CCO2)N1CCCC1Cn1cccn1 (stereo not given)	-4.67
O=C(CS(=O)(=O)C1CCCC1)NC(c1ccc(F)cc1)C1CC1 (stereo not given)	1.6
N#Cc1ncn(CCC(=O)Nc2ccccc2F)n1	-0.493
Cc1ccc(C(=O)N2CCN(CCCSCC#N)CC2)cc1F	-7.64
